Reference: US11439607B2 (Paracelsus Neuroscience I, LLC, priority 2016, dated 2022)

Tests used:
[1] = test system: Healthy rats; test: Healthy rats - Paw pressure test; format: in vivo; settings: Internal reference, Morphine 4 mg/kg s.c.
Method: (§1) Depending on the test, the percentage of activity was calculated from the mean value of the vehicle-treated animals and compared to naïve animals, control paw or cut-off value.

[2] = test system: Healthy rats; test: Healthy rats - Tail flick test; format: in vivo; settings: Internal reference, Morphine 4 mg/kg s.c.
Method: as §1

[3] = test system: Formalin test; test: Formalin test - Score; format: in vivo, rodent; settings: internal reference, Morphine 4 mg/kg s.c.
Method: as §1

[4] = test system: Bennett model; test: Bennett model - Paw pressure test; format: in vivo, rodent; settings: Internal reference, Morphine 4 mg/kg s.c.
Method: as §1

[5] = test system: Brennan model; test: Brennan model - Electronic Von Frey test; format: in vivo, rodent; settings: Internal reference, Morphine 4 mg/kg s.c.
Method: as §1

[6] = test system: CCI rats; test: Chronic constriction injury (CCI) model, von Frey paw withdrawal threshold; format: in vivo, rat; settings: gabapentin 100 mg/kg p.o., 2 hours after administration
Method: Peripheral nerve injury was performed according to the method of Bennett and Xie (Bennett and Xie, 1988), with paw withdrawal thresholds to Von Frey filament stimulation measured as described previously (Chaplan et al., 1994; Tal and Bennett, 1994).
In the first cohort of nerve injured rats, hindpaw mechanical hypersensitivity was evident by day 7 and maintained for the duration of the experiment (see FIG. 4A). […] Experiments were run using a simple cross-over design. Tactile hypersensitivity of rats was evaluated one day prior to drug testing. Drugs were allowed to wash out for one week at which time the mechanical hypersensitivity was reassessed. Rats were then randomly re-assigned to groups prior to the next arm of the study being run. In the final arm, tissue was collected from 3 animals from each group immediately after behavioral assessment of allodynia. Dosing of drugs, assessment of mechanical thresholds and collection of tissues were performed by individual experimenters all blinded to treatments.
All CCI data are presented as mean+/−S.E.M. and were analyzed using ANOVA followed by Fisher's PLSD post-hoc analysis (StatView, Cary, N.C.) when appropriate.

[7] = test system: Oxaliplatin model; test: Oxaliplatin - Acetone test (reaction time); format: in vivo, rodent; settings: Internal reference, Gabapentin 100 mg/kg p.o.
Method: as §1

[8] = test system: Carrageenan model; test: Carrageenan - Paw pressure test; format: in vivo, rodent; settings: Internal reference, Indomethacin 30 mg/kg p.o.
Method: as §1

[9] = test system: Kaolin model; test: Kaolin - Gait score; format: in vivo, rodent; settings: Internal reference, Indomethacin 10 mg/kg p.o.
Method: as §1

## CN1CC[C@]23c4c5ccc(O)c4O[C@H]2[C@@H](O)C=C[C@H]3[C@H]1C5 [Morphine]
[1]
  % of activity vs. vehicle: 69%
[2]
  % of activity vs. vehicle: 66%
[3]; early phase
  % of activity vs. vehicle: 57%
[3]; late phase
  % of activity vs. vehicle: 38%
[4]
  % of activity vs. vehicle: 191%
[5]
  % of activity vs. vehicle: 88%

## NCC1(CC(=O)O)CCCCC1 [Gabapentin]
[6]
  Reversal of mechanical hypersensitivity (tactile allodynia): 66%
[7]
  % of activity vs. vehicle: 82%

## COc1ccc2c(c1)c(CC(=O)O)c(C)n2C(=O)c1ccc(Cl)cc1 [Indomethacin]
[8]
  % of activity vs. vehicle: 100%
[9]
  % of activity vs. vehicle: 58%
